Holding throughout (assay type): cell-based
For one test, the system named is Escherichia coli. The test is described as follows: Agar plate disc-diffusion, antibacterial inhibition zone. On the procedure: (§1) The agar plate disc-diffusion method was applied. […] The discs were then placed onto the surface of agar plates (nutrient agar for bacteria and Sabouraud's dextrose agar for fungi) seeded with the test organism. Each plate contained 15 mL of the agar medium, previously seeded with 0.2 mL of the broth culture of each organism pregrown for 18 hours. The plates were incubated at 37° C. for 48 hours, and 72 hours for fungi. The inhibition zones were measured in mm. Discs impregnated with DMSO were used as a control, and its inhibition zone was subtracted from the tested compound actual inhibition zone.
A general note: A growth-free zone around the sample is the usual read-out of agar diffusion tests.

The subject of another test is Bacillus cereus. The test is described as above. On the procedure:
as §1

Another test has as its system Pseudomonas aeruginosa. Described as above. The method, then: as §1
For another test, the system named is Staphylococcus aureus. The test is described as above. The method, then: as §1
A further test has as its system Aspergillus flavus. The test is described as follows: Agar plate disc-diffusion, antifungal inhibition zone. The method, then:
as §1

The subject of test [1] is Chrysosporium keratinophilum. The description is as above. The method, then:
as §1

A further test deals with different microbes. Kind of test: Antimicrobial screening, overall statement. Conditions: against different microbes (bacteria and fungi of Tables 1 and 2). The method, then: The agar plate disc-diffusion method was applied. Sterilized filter papers (6 mm in diameter) were wetted with 10 μL of a solution of ethyl 2-(5-(3-fluorophenyl)-4-phenyl-4H-1,2,4-triazol-3-ylthio)acetate (III) to be tested, containing 10 mg/mL in DMSO, and the discs were allowed to air dry. The discs were then placed onto the surface of agar plates (nutrient agar for bacteria and Sabouraud's dextrose agar for fungi) seeded with the test organism. Each plate contained 15 mL of the agar medium, previously seeded with 0.2 mL of the broth culture of each organism pregrown for 18 hours. The plates were incubated at 37° C. for 48 hours, and 72 hours for fungi. The inhibition zones were measured in mm. Discs impregnated with DMSO were used as a control, and its inhibition zone was subtracted from the tested compound actual inhibition zone.

Setting [2] is: A = concentration of comp. = 10,000 μL.
Setting [3] is: B = concentration of comp. = 30,000 μL.
Setting [4] is: C = concentration of comp. = 50,000 μL.

As to `O=C(O)c1cn(C2CC2)c2cc(N3CCNCC3)c(F)cc2c1=O` [Cip., ciprofloxacin, reference compound], the inhibition zone in the test on Escherichia coli (setting [2]) came to 30 mm; in the test on Escherichia coli (setting [3]), 39 mm; in the test on Escherichia coli (setting [4]), 60 mm; in the test on Bacillus cereus (setting [2]), 29 mm; in the test with Bacillus cereus (setting [3]) it was 30 mm; in the test with Bacillus cereus (setting [4]), 42 mm. Also, the inhibition zone was determined as 29 mm in the test on Pseudomonas aeruginosa (setting [2]); 30 mm with Pseudomonas aeruginosa (setting [3]); 53 mm with Pseudomonas aeruginosa (setting [4]); 43 mm with Staphylococcus aureus (setting [2]); 44 mm in the test with Staphylococcus aureus (setting [3]); 53 mm in the test with Staphylococcus aureus (setting [4]). Further, the inhibition zone with Aspergillus flavus (setting [2]) is on record as 29 mm; with Aspergillus flavus (setting [3]), 30 mm; in the test on Aspergillus flavus (setting [4]), 42 mm; in test [1] (setting [2]) it was 29 mm; in test [1] (setting [3]) it was 30 mm; in test [1] (setting [4]), 53 mm.
Take `CCOC(=O)CSc1nnc(-c2cccc(F)c2)n1-c1ccccc1` [III, ethyl 2-(5-(3-fluorophenyl)-4-phenyl-4H-1,2,4-triazol-3-ylthio)acetate]: the inhibition zone is recorded as 26 mm with Escherichia coli (setting [2]); 34 mm with Escherichia coli (setting [3]); 50 mm in the test on Escherichia coli (setting [4]); 24 mm in the test on Bacillus cereus (setting [2]); 27 mm with Bacillus cereus (setting [3]); 39 mm with Bacillus cereus (setting [4]). The inhibition zone was 25 mm in the test with Pseudomonas aeruginosa (setting [2]); 26 mm with Pseudomonas aeruginosa (setting [3]); 44 mm in the test on Pseudomonas aeruginosa (setting [4]); 18 mm in the test with Staphylococcus aureus (setting [2]); 21 mm in the test on Staphylococcus aureus (setting [3]); 30 mm with Staphylococcus aureus (setting [4]). Besides, the inhibition zone in the test on Aspergillus flavus (setting [2]) was determined as 20 mm; with Aspergillus flavus (setting [3]), 23 mm; with Aspergillus flavus (setting [4]), 29 mm; in test [1] (setting [2]) it was 25 mm; in test [1] (setting [3]), 29 mm; in test [1] (setting [4]), 47 mm. For the same compound, in the test with different microbes, the “antimicrobial activity (in words)” value is given as “excellent antimicrobials activities”.

For the origin of these results see patent publication US11939305B1, “Ethyl 2-(5-(3-fluorophenyl)-4-phenyl-4H-1,2,4-triazol-3-ylthio)acetate as an antimicrobial compound” (KING FAISAL UNIVERSITY, priority 2023, dated 2024).
